In US11420977B2, “Late SV40 (LSF) inhibitors” (Trustees of Boston University, priority 2018, dated 2022):

Tests used:
[1] = target: T1, tubulin (Sus scrofa, UniProt P02550+P02554); assay: Tubulin polymerization assay (Cytoskeleton kit); assay type: biochemical; settings: FIG. 4C
T1 construct: purchased Cytoskeleton
Protocol: Quantitative determination of tubulin polymerization in vitro was carried out using the in vitro polymerization assay kits from either Millipore (17-10194) or Cytoskeleton (FQI1 assay only) according to the manufacturer's conditions. For the Millipopre kit, thawed tubulin was mixed with purified His-LSF, His-SET8 proteins or FQI1 in 70 μL final volumes of 1×PB-GTP solutions, and the 96-well plate was transferred to the pre-warmed (37° C.) SpectraMax M5 Microplate Reader to read UV-Visible Absorbance. Tubulin polymerization was followed by measuring the turbidity variation (light scattering) every 1 min at 350 nm for 1 hr.

[2] = system: RPE-hTERT Flp-In cells; assay: FQI34/FQI1 comparison, mitotic defects in RPE-hTERT Flp-In cells; assay type: cell-based; settings: one hour treatment; FIG. 33
Protocol: RPE-hTERT Flp-In cells were incubated in serum-free DMEM:F12 media for 24 hours to synchronize the cells in G0/G1. Cells were stimulated to reenter the cell cycle with DMEM:F12 media containing 10% Fetal Bovine Serum. After 24 hours, the cells were treated with DMSO (vehicle), FQI1 (2.5 μM or 5 μM), or FQI34 (250 nM or 500 nM) for one hour. The cells were washed twice with 1×Phosphate-buffered Saline and fixed with PHEM (3.7% formaldehyde in 100 mM PIPES at pH 6.8, 10 mM EGTA, 1 mM magnesium chloride, and 0.2% Triton X-100) for 10 minutes at room temperature. The fixed cells were stained for α-tubulin using a mouse anti-α-tubulin antibody (Fisher #62204). Secondary antibodies were: DMSO/FQI1 samples—goat anti-mouse IgG conjugated to Alexa 546 (Thermo Fisher #A11003); FQI34 samples—goat anti-mouse IgG conjugated to Texas Red (Fisher #T-862). DNA was stained with Hoechst 33342. Cells were imaged using a Nikon NiE using the 40× objective and images were captured using a DS-Qi1 Mc 12 bit camera. Scale bars and merged images were generated using Fiji software.

[3] = system: synchronized HCC cells; assay: Mitotic phenotypes in synchronized HCC cells; assay type: cell-based; settings: cells synchronized at G1/S border, released in presence of 5 μM
Protocol: FIG. 4A is a graph showing tubulin polymerization assay in the presence of low concentrations of LSF (Millipore kit). FIG. 4B are bands showing co-immunoprecipitation of LSF with endogenous α-tubulin from HEK293T cells which was disrupted upon treatment with 2.5 μM FQI1 for 24 hr. FIG. 4C is a graph showing tubulin polymerization assay in the presence of FQI1 and FQI2 (Cytoskeleton kit). Nocodazole was used as a control to inhibit polymerization. […] Cells were synchronized at the G1/S border and released in presence of 5 μM FQI1. Fixed cells were stained with α-tubulin antibody and DAPI.

[4] = system: synchronized HeLa cells; assay: Mitotic defects in synchronized HeLa cells; assay type: cell-based, human
Protocol: FIG. 8B is an image showing DAPI staining of synchronized cells, treated as indicated in panel FIG. 8A and analyzed at 20× magnification. Samples were collected at 0, 3, 6, and 19 hours post release from a G1/S block in presence of DMSO or FQI1. Insets represent individual cells in more detail. Arrows represent cells in metaphase or prometaphase, respectively, at the 6 hour time point. FIG. 8C is a bar graph showing quantification from 75-100 total cells analyzed by DNA and α-tubulin morphologies, indicating cells containing multi-asters, at 9 hours post release from a G1/S block. Data are representative of 2 experiments. FIG. 8D is a graph showing that the mitotic arrest mediated by limited FQI1 treatment of synchronized cells is reversible. Synchronized cells were released in the presence of 5 μM of FQI1 from a G1/S block. Ten hours after the release, the cells were washed and then either incubated with media alone or re-incubated with media in the presence of 5 μM FQI1. Samples were collected 24 hours post release. Fixed cells were stained with propidium iodide to analyze DNA content. […]

[5] = target: T2, tubulin methylation by SET8 (Sus scrofa, UniProt M3V851); assay: In vitro methylation assay, tubulin methylation by SET8; assay type: biochemical, porcine; settings: at 100 μM (FIG. 5B lane 4); no LSF added
T2 construct: consistent with the presence of LSF in the tubulin preparations; purchased MP-Bioscience; host or cells: porcine brain (tubulin); GST-SET8 recombinant
Protocol: (§1) One μg of recombinant GST-SET8 (in 50% glycerol) and 2 μg of the purified tubulin (MP-Bioscience) were incubated with radioactively labeled [3H] AdoMet at room temperature for overnight. As indicated, recombinant His-LSF protein or FQI1 inhibitor were added to the reaction. Samples were separated by electrophoresis through a 10% Tricine Gel (Invitrogen) and the gel was stained with Coomassie Brilliant Blue and incubated with EN3HANCE (PerkinElmer) solution. The gel was dried and exposed to autoradiography film for 1 week. Two […] of each peptide and 2 μg of purified SET8 or full-length SETD2 (Active Motif) were incubated with radioactively labeled [3H] AdoMet at room temperature overnight. Samples were spotted onto P81 filters (Whatman 3698325) and the filter were washed 3 times with 0.3 M ammonium bicarbonate. The ratio of incorporated [^3H]CH3 was determined using liquid scintillation counting.

[6] = system: tubulin methylation by SET8; assay: as above; assay type: biochemical, porcine; settings: with 862 nM LSF (FIG. 9B)
Protocol: as §1

[7] = system: HCC tumors; settings: cited from earlier work
[8] = target: T3, LSF-tubulin interaction (Homo sapiens, UniProt Q12800); assay: Co-immunoprecipitation of LSF with endogenous α-tubulin from HEK293T cells; assay type: cell-based; settings: 2.5 μM for 24 hr
T3 construct: endogenous in cells; host or cells: HEK293T
Protocol: HEK293T, HeLa and COS7 cells were cultured in DMEM media supplemented with 10% FBS. FQI1 treatment of HEK293T cells was for 24 hours at 37° C. with 2.5 μM FQI1. Immunoprecipitation (IP) and immunofluorescence experiments were carried out as described previously. For the immunoprecipitation, 1 mg of total HEK293T cellular extract was incubated with 5 μg of either anti-SET8 antibody (Active Motif) or anti-LSF antibody (Millipore). The immunoprecipitates were blotted with anti-α tubulin, anti-β tubulin (Sigma T9026, T8328), anti-SET8 or anti-LSF (BD) antibodies as per the manufacturer's dilution recommendations. Cellular extracts were also immunoprecipitated with normal IgG (Cell Signaling Technology) as a negative control for all IP experiments.

[9] = target: T4, SET8 methylation of Histone H4 (Homo sapiens, UniProt Q9NQR1); assay: In vitro methylation assay, SET8 methylation of Histone H4; assay type: biochemical; settings: histone H4 as substrate (FIG. 5C)
T4 construct: using full-length or overlapping segments of SET8 fused to GST; made in house; host or cells: E. coli
Protocol: as §1

[10] = system: aggressive HCC cell line; settings: in vitro; cited from earlier work
[11] = system: HuH7 cells; assay: MTS cell proliferation assay, HuH7; assay type: cell-based; settings: Homo sapiens, Huh-7, 72-hour incubation
Protocol: (§2) Cell lines and culture conditions: Human colon cancer cells Caco-2, HT29 and HCT15, human pancreatic cancer cells BxPC3, CFPAC-1, and CAPAN-2, liver cancer cells SNU423 and kidney cells HEK293, were obtained from American Type Culture Collection (Rockville, USA). HeLa, DLD1, U937, THP-1, and NIH3T3 cells were obtained from ATCC. Huh7 cells were obtained from (Japanese Cancer Resources Bank). HeLa cells, Huh7, DLD1 and NIH-3T3 cells were cultured in DMEM (Dulbecco's modification of Eagle's Medium; Corning) supplemented with 10% Fetal Bovine Serum (FBS; Invitrogen) and 10% Fetal Calf Serum (FCS; Atlanta Biologicals) respectively. U937, BxPC3, HCT15, SNU423 and THP-1 cells were grown in RPMI-1640 (Roswell Park Memorial Institute; Corning) supplemented with 10% Fetal Bovine Serum (FBS; Invitrogen). CFPAC-1 cells were cultured in Iscove's Modified Dulbecco's Medium (ATCC) supplemented with 10% FBS. CAPAN-2 and HT29 cells were cultured in McCoy's 5a medium supplemented with 10% FBS. Caco2 and HEK293 cells were grown in Eagle's Minimum Essential Medium (ATCC) with final 20% FBS concentration. All cells were maintained at 37° C. in 5% CO2 at constant 70% humidity.
(§3) MTS cell proliferation assay: Cells were detached from the plates using trypsin (0.25% for 3 mins, ATCC) and counted using a hemocytometer and were plated at 3000-1500 cells per well, in a 96-well format. The cells were seeded in the inner wells of 96 well plates, and media was added to the outer wells (blank). For NIH-3T3, 1500 cells were seeded in the inner wells of 96-well plates, and after 20 hours cells were treated with compound or DMSO (vehicle control) at appropriate concentrations (DMSO at final concentration of 1%). For other adherent cells 3000 HeLa, BxPC3, CFPAC-1, CAPAN-2, HEK293, HCT15, HT29, CaCo2, DLD1, Huh7 or SNU423 cells were seeded in in each well approximately 20 hrs prior to the treatment. For U937 and THP-1 suspension cells, 2500 cells were added to the wells of a 96-well plate on the day of treatment. After a 72-hour (or 120 hrs for BxPC3, CAPAN-2, SNU423) incubation with compound or vehicle, cell growth was assessed via the Promega CellTiter 96® AQueous One Solution Cell Proliferation Assay, a colorimetric method to determine the number of viable cells. 20 μL of the CellTiter 96® AQueous One Solution Reagent was added directly into cultured wells and incubated for approximately one hour, after which the absorbance at 490 nm was read with a 96-well plate reader (Opys MR Microplate Reader). GI50 values were determined from plots of the percentage of compound-treated cell growth to vehicle cell growth vs. compound concentration (GraphPad Prism; non-linear regression, log inhibitor verse normalized response with variable slope).

[12] = system: SNU-423 cells; assay: MTS cell proliferation assay, SNU-423; assay type: cell-based; settings: Homo sapiens, 120 hrs incubation
Protocol: as §2, §3

[13] = system: HeLa cells; assay: MTS cell proliferation assay, HeLa; assay type: cell-based; settings: Homo sapiens, 72-hour incubation
Protocol: as §2, with “All cells were maintained at 37° C. in 5% CO2 at constant 70% humidity.” left out
(§4) MTS cell proliferation assay: Cells were detached from the plates using trypsin (0.25% for 3 mins, ATCC) and counted using a hemocytometer and were plated at 3000-1500 cells per well, in a 96-well format. […] After a 72-hour (or 120 hrs for BxPC3, CAPAN-2, SNU423) incubation with compound or vehicle, cell growth was assessed via the Promega CellTiter 96® AQueous One Solution Cell Proliferation Assay, a colorimetric method to determine the number of viable cells. 20 μL of the CellTiter 96® AQueous One Solution Reagent was added directly into cultured wells and incubated for approximately one hour, after which the absorbance at 490 nm was read with a 96-well plate reader (Opys MR Microplate Reader). GI50 values were determined from plots of the percentage of compound-treated cell growth to vehicle cell growth vs. compound concentration (GraphPad Prism; non-linear regression, log inhibitor verse normalized response with variable slope).

[14] = system: NIH 3T3 cells; assay: MTS cell proliferation assay, NIH 3T3; assay type: cell-based; settings: Mus musculus, NIH3T3, 72-hour incubation
Protocol: as §2, with “All cells were maintained at 37° C. in 5% CO2 at constant 70% humidity.” left out
as §4

T2 sequence (M3V851 1-502): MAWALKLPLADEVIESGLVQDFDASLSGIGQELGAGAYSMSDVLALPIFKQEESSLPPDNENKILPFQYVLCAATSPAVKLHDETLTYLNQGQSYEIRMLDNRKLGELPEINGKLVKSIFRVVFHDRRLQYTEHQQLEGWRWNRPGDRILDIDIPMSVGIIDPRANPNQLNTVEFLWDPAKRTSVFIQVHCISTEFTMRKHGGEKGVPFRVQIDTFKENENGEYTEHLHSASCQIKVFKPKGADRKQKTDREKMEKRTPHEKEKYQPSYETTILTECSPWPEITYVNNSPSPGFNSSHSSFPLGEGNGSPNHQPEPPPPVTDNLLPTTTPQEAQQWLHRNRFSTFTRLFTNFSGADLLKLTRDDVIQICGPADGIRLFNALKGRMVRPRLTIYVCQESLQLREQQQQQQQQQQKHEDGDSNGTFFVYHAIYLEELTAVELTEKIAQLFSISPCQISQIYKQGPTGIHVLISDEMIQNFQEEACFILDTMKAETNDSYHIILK
T3 sequence (Q12800 whole entry): as the sequence (M3V851 1-502) above, with N168T, P302S counted along it
T1 sequence (P02550 whole entry): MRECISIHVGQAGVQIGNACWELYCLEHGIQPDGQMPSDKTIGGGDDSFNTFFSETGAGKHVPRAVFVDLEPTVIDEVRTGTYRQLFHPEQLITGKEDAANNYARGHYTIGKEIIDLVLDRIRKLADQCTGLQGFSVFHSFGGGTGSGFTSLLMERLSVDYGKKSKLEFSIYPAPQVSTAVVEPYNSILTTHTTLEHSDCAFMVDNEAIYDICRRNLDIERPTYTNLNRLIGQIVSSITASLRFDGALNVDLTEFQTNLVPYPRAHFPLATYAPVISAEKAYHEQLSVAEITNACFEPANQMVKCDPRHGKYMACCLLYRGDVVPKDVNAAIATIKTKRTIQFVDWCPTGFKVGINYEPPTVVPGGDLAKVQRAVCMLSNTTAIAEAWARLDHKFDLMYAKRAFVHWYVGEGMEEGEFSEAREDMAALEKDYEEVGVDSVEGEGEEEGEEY
T1 sequence (P02554 whole entry): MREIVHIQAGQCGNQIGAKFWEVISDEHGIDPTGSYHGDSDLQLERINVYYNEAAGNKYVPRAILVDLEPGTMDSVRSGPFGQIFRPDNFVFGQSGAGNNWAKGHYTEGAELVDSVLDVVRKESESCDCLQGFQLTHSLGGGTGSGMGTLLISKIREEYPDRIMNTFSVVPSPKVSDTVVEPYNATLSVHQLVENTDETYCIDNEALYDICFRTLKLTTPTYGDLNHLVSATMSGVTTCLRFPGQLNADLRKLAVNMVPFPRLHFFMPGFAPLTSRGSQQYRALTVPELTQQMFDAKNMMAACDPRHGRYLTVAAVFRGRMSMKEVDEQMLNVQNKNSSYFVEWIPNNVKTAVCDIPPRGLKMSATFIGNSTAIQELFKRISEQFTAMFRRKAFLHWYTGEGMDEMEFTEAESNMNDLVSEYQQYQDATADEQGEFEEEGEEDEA
T4 sequence (Q9NQR1 1-352 isoform Q9NQR1-2): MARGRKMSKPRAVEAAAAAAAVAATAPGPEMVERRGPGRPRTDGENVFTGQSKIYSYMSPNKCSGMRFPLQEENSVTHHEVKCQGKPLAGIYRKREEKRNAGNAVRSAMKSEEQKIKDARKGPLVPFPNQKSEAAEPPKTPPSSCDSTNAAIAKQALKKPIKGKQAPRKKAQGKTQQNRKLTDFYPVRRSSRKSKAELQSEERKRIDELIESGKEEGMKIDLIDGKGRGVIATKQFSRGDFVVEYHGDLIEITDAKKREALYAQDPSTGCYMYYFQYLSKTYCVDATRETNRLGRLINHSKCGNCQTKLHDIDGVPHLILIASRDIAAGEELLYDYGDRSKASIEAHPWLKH

Row | Structure (SMILES) | effect on tubulin polymerization in vitro [1] | chromosome and spindle phenotype (DNA and α-tubulin immunofluorescence) [2] | mitotic phenotype [3] | reversibility of mitotic arrest after washout ([4]; 5 μM for 10 hours, then washout, 24 hours post release) | multi-aster formation ([4]; synchronized cells, short treatment prior to mitosis (FIG. 8C)) | decrease of tubulin methylation by SET8 [5] [fold] | effect on enhancement of tubulin methylation by exogenously added LSF [6] | toxicity to normal tissues ([7]; mouse HCC models) | tumor growth in mouse HCC models ([7]; multiple mouse HCC models) | co-immunoprecipitation of LSF with endogenous α-tubulin [8] | effect on SET8 methylation of Histone H4 [9] | apoptosis in HCC cell line [10] | GI50 [11] [nM] | GI50 [12] [nM] | GI50 [13] [nM] | GI50 [14] [nM]
1 | CCOc1ccccc1C1CC(=O)Nc2cc3c(cc21)OCO3 (stereo not drawn) [FQI1] | inhibited tubulin polymerization | condensed, but nonaligned chromosomes and disrupted spindles | abnormal mitotic phenotypes | reversible | concentration-dependent increase in multi-aster formation | ~3 | inhibited the ability of exogenously added LSF to enhance methylation of tubulin by SET8 | no observable toxicity to normal tissues | significantly inhibits tumor growth | disrupted | does not affect | induces apoptosis |  |  |  | 
2 | CCOc1cc(N(C)C)ccc1[C@@H]1CC(=O)Nc2cc3c(cc21)OCO3 [(R)-FQI-34] |  |  |  |  |  |  |  |  |  |  |  |  | 158 | 251 | 300 | 5800
3 | CCOc1cc(N(C)C)ccc1[C@@H]1CC(=O)Nc2cc3c(cc21)OCCO3 [(R)-FQI-37] |  |  |  |  |  |  |  |  |  |  |  |  | 126 | 147 |  | 
